The subject of data set [1] is ME-016 tumor. Nature of the data set: Murine BRAFmut melanoma PDX model, tumor growth and survival. The conditions noted are these: ME-016 tumor-containing mice; Compound I 100 mg/kg, dabrafenib 25 mg/kg, trametinib 1 mg/kg. It counts as in vivo. The method, then: Mice containing a ME-016 tumor were treated with vehicle, Compound I (100 mg/kg), dabrafenib (25 mg/kg), trametinib (1 mg/kg), Compound I+dabrafenib, Compound I+trametinib, dabrafenib+trametinib, and Compound I+dabrafenib+trametinib.

Data set [2] in a line: Stability study under thermal stress, 60° C. for 7 days. It counts as physicochemical. How it is done: Forms A, B, and D were stored in an oven maintained at 60° C. for 7 days.
A short description of data set [3]: Dynamic vapor sorption (moisture sorption) experiment. How it is done: Dynamic vapor sorption experiments were performed on Form A, Form B, and Form D. Table 103 provides the results of the DVS experiment.
A short description of data set [4]: Vacuum drying experiments of Form B. The settings on record: for Weight Loss (calculated by weight before and after drying): Vacuum oven. It counts as physicochemical.
For data set [5] the following is noted: trial not given; cited from earlier work.
The conditions of data set [6]: abemaciclib, cited from earlier work.
The conditions of data set [7]: cited from earlier work.
The nature of data set [8]: Steady-state AUC0-24,ss, (AUC0-24,ss)/dose, half-life and time to steady state: Compound I versus palbociclib, ribociclib, abemaciclib. It counts as in vivo, human. The conditions noted are these: for (AUC0-24,ss)/Dose (mg): in h·ng/mL/mg; for Time to Steady State / Time to Steady-State: FDA labeled dose, five half-lives; for AUC(0-t): human, in vivo, read-out: Extrapolated AUC0-24,ss. The text has this:
The time to reach steady state was defined as five half-lives (97% steady state achieved). […] The AUC data are presented as the arithmetic mean. […] The AUC data are presented as the geometric mean. The steady-state AUC0-24 for various BID doses of abemaciclib provided in Table 89 was obtained from the above cited prior published studies. The AUC data are presented as the geometric mean.

For data set [9] the following is noted: cited from earlier work; for AUC0-24,ss: geometric mean; for AUC0-10,ss: arithmetic mean.
The conditions of data set [10]: Grade 3/4 neutropenia and leukopenia; cited from earlier work.
The conditions of data set [11]: MONALEESA-2; cited from earlier work.

“Also recorded” adds a separate entry of the source. Where two headings read alike, the source gives them in different places.

As for `CC(C)(C)c1nc(-c2cccc(NS(=O)(=O)c3c(F)cccc3F)c2F)c(-c2ccnc(N)n2)s1` [Dabrefinib], the “Median OS” value in data set [1] stood at 32 days.

As for `CC(C)N1CCN(c2ccc(Nc3ncc4cc5n(c4n3)C3(CCCCC3)CNC5=O)nc2)CC1.Cl.Cl` [Form D], the “XRPD pattern after thermal stress” value in [2] was “No change in the XRPD pattern”. The compound further had a moisture adsorbed in data set [3] (60% RH) of 4.4 wt %. In addition, the “% wt change at 60% RH” value in [3] (DVS, 60% RH) is 4.4 % wt. The “% wt change at 90% RH” value in [3] (DVS, 90% RH) is listed as 17.0 % wt. Moreover, the “stability in the moisture sorption experiment (XRPD of dried sample)” value in [3] (after DVS, dried at 60° C. and 0% RH) was “unstable; also recorded: not stable”. Besides, the “XRPD (post DVS)” value in data set [3] (after moisture sorption experiment, dried at 60° C. and 0% RH) is given as “Form K”.

`CC(C)N1CCN(c2ccc(Nc3ncc4cc5n(c4n3)C3(CCCCC3)CNC5=O)nc2)CC1.Cl.Cl` [Sample 8]: in data set [4] (~40° C., 15 h (~29.5 in Hg)), the “Weight Loss (calculated by weight before and after drying)” value is on record as “Weight loss: 7.4%”. The “XRPD Result” value in [4] (after Vacuum oven, ~40° C., 15 h (~29.5 in Hg)) is “New crystalline”.

Turning to `CC(C)N1CCN(c2ccc(Nc3ncc4cc5n(c4n3)C3(CCCCC3)CNC5=O)nc2)CC1.Cl.Cl` [Sample 14], the “Weight Loss (calculated by weight before and after drying)” value in data set [4] (23° C., 2 h (~29.5 in Hg)) was “Weight loss: 6.8%”; in data set [4] (~40° C., 15 h (~29.5 in Hg)), “Weight loss: 7.5%”.

As to `CC(=O)Nc1cccc(-n2c(=O)n(C3CC3)c(=O)c3c(Nc4ccc(I)cc4F)n(C)c(=O)c(C)c32)c1` [Trametinib], the “Median OS” value in [1] stood at 42.5 days.

For `CCN1CCN(Cc2ccc(Nc3ncc(F)c(-c4cc(F)c5nc(C)n(C(C)C)c5c4)n3)nc2)CC1` [abemaciclib, 2-pyrimidinamine, N-[5-[(4-ethyl-1-piperazinyl)methyl]-2-pyridinyl]-5-fluoro-4-[4-fluoro-2-methyl-1-(1-methylethyl)-1H-benzimidazol-6-yl]-], the “patients with diarrhea required a dose reduction” value in data set [5] is 22%. In addition, the “patients with diarrhea required dose omission” value in data set [5] was 22%. Besides, the figures for the “estimated geometric mean accumulation ratio” value in [6] (based on AUC) and in data set [6] (based on Cmax) were 3.2 (59% CV) and 2.3 (50% CV), respectively. Further, the T1/2 entry in data set [6] (human) is on record as “roughly 18.3 hours”. Moreover, the “Diarrhea, patients” value in data set [7] (MONARCH 1, abemaciclib alone) is 90%. The “Grade 3 diarrhea, patients” value in data set [7] (MONARCH 1, abemaciclib alone) is 20%. For the same compound, the “Neutropenia, patients” value in data set [7] (MONARCH 1, abemaciclib alone) was 37%. Moreover, the “Grade >3 decrease in neutrophil count (based on laboratory findings), patients” value in data set [7] (MONARCH 1) is recorded as 27%. For the same compound, the “(AUC0-24,ss)/Dose (mg)” value in data set [8] (75 mg BID) came to 17.33; in data set [8] (100 mg BID) it was 39.10; in data set [8] (150 mg BID), 28.53; in data set [8] (200 mg BID), 27.60. For the same compound, the “AUC0-24,ss” value in data set [9] (75 mg BID) is 1300 ng·h/mL; in [9] (100 mg BID) it was 3910 ng·h/mL; in [9] (150 mg BID), 4280 ng·h/mL; in [9] (200 mg BID) it was 5520 ng·h/mL.

As to `CC(=O)c1c(C)c2cnc(Nc3ccc(N4CCNCC4)cn3)nc2n(C2CCCC2)c1=O` [palbociclib, 6-acetyl-8-cyclopentyl-5-methyl-2-(5-piperazin-1-yl-pyridin-2-ylammino)-8H-pyrido-[2,3-d]-pyrimidin-7-one], the “Extrapolated AUC0-24,ss” value in [8] (100 mg QD, AUC0-24=(AUC0-10)*2.49655) was 1478 ng·h/mL. Also, the “Time to Steady State” value in data set [8] (125 mg QD) amounted to 5.5 days. For the same compound, in data set [8] (125 mg QD), the “Time to Steady-State” value was determined as 132.5 h. Also, the AUC(0-t) in [8] (25 mg QD, AUC0-24=(AUC0-10)*2.49655) is 297 ng·h/mL; in data set [8] (50 mg QD, AUC0-24=(AUC0-10)*2.49655) it was 684 ng·h/mL; in [8] (75 mg QD, AUC0-24=(AUC0-10)*2.49655) it was 1230 ng·h/mL; in data set [8] (125 mg QD, AUC0-24=(AUC0-10)*2.49655), 1810 ng·h/mL; in data set [8] (150 mg QD, AUC0-24=(AUC0-10)*2.49655) it was 2710 ng·h/mL. For the same compound, the “patients requiring a dose interruption” value in data set [10] was 71%. The “patients requiring a dose reduction” value in data set [10] is on record as 35%. Also, the “AUC0-10,ss” value is 119 ng·h/mL in data set [9] (25 mg QD); 274 ng·h/mL in data set [9] (50 mg QD); 492 ng·h/mL in data set [9] (75 mg QD); 592 ng·h/mL in data set [9] (100 mg QD); 724 ng·h/mL in data set [9] (125 mg QD); 1084 ng·h/mL in data set [9] (150 mg QD). The “Mean Half-Life” value in data set [9] (125 mg QD, FDA labeled dose) is 26.5 h.

With `CN(C)C(=O)c1cc2cnc(Nc3ccc(N4CCNCC4)cn3)nc2n1C1CCCC1` [ribociclib, 7-cyclopentyl-N,N-dimethyl-2-((5-(piperazin-1-yl)pyridin-2-yl)amino)-7H-pyrrolo[2,3-d]pyrimidine-6-carboxamide], the “neutropenia, most frequently reported adverse reaction” value in data set [11] is on record as 75%. For the same compound, in data set [8] (600 mg QD), the “Time to Steady State” value came to 6.8 days and the “Time to Steady-State” value came to 162.5 h.
